# Results as given in ChEMBL document CHEMBL3885861, “Open TG-GATES”.
# Organism: Rattus norvegicus
# Test: Open TG-GATES - Regimen: Daily Repeat
# Type: toxicity, organism-based, Sprague-Dawley
# Set-up: regimen Daily Repeat, gender Male, age 6 weeks
# Conditions: in vivo, po, 0 mg/kg, route gavage, dose level Control; for APTT / Bas / Eos / Fbg / Hb / Ht / Lym / MCH / MCHC / MCV / Mono / Neu / PT / Plat / RBC / Ret / WBC: tissue Blood; for KIDNEY_L / KIDNEY_R / KIDNEY_TOTAL: tissue Kidney; for LIVER: tissue Liver; for A/G / ALP / ALT / AST / BUN / CRE / Ca / Cl / DBIL / GLC / IP / K / LDH / Na / PL / RALB / TBIL / TC / TG / TP / gamma-GTP: tissue Plasma
compound,measurement,setting,value
CC(CN1c2ccccc2Sc2ccccc21)N(C)C (configuration not stated) [PROMETHAZINE],TERMINAL_BW,"72 h, time 3 day",230.6 g
same,APTT,"72 h, time 3 day",22.8 s
same,Bas,"72 h, time 3 day",0%
same,Eos,"72 h, time 3 day",1%
same,Fbg,"72 h, time 3 day",309 mg/dL
same,Hb,"72 h, time 3 day",13.2 g/dL
same,Ht,"72 h, time 3 day",40.1%
same,Lym,"72 h, time 3 day",81.2%
same,MCH,"72 h, time 3 day",20.4 pg
same,MCHC,"72 h, time 3 day",33%
same,MCV,"72 h, time 3 day",61.9 fL
same,Mono,"72 h, time 3 day",2.8%
same,Neu,"72 h, time 3 day",14.5%
same,PT,"72 h, time 3 day",16.1 s
same,Plat,"72 h, time 3 day",117 x10_4/uL
same,RBC,"72 h, time 3 day",647.8 x10_4/ul
same,Ret,"72 h, time 3 day",6%
same,WBC,"72 h, time 3 day",94 x10_2/uL
same,KIDNEY_L,"72 h, time 3 day",1 g
same,KIDNEY_R,"72 h, time 3 day",1.1 g
same,KIDNEY_TOTAL,"72 h, time 3 day",2.1 g
same,LIVER,"72 h, time 3 day",11.1 g
same,A/G,"72 h, time 3 day",1.3
same,ALP,"72 h, time 3 day",1577 IU/L
same,ALT,"72 h, time 3 day",40 IU/L
same,AST,"72 h, time 3 day",71.8 IU/L
same,BUN,"72 h, time 3 day",17 mg/dL
same,CRE,"72 h, time 3 day",0.2 mg/dL
same,Ca,"72 h, time 3 day",10.5 mg/dL
same,Cl,"72 h, time 3 day",105.2 meq/L
same,DBIL,"72 h, time 3 day",0 mg/dL
same,GLC,"72 h, time 3 day",195.2 mg/dL
same,IP,"72 h, time 3 day",6.8 mg/dL
same,K,"72 h, time 3 day",4.6 meq/L
same,LDH,"72 h, time 3 day",177 IU/L
same,Na,"72 h, time 3 day",141.2 meq/L
same,PL,"72 h, time 3 day",161 mg/dL
same,RALB,"72 h, time 3 day",3.1 g/dL
same,TBIL,"72 h, time 3 day",0.005 mg/dL
same,TC,"72 h, time 3 day",86.8 mg/dL
same,TG,"72 h, time 3 day",109.8 mg/dL
same,TP,"72 h, time 3 day",5.5 g/dL
same,gamma-GTP,"72 h, time 3 day",1.8 IU/L
same,TERMINAL_BW,"[…], time 7 day",267.8 g
same,TERMINAL_BW,"[…], time 14 day",326 g
same,TERMINAL_BW,"[…], time 28 day",402.8 g
same,APTT,"[…], time 7 day",22.2 s
same,Bas,"[…], time 7 day",0%
same,Eos,"[…], time 7 day",0.8%
same,Fbg,"[…], time 7 day",293.8 mg/dL
same,Hb,"[…], time 7 day",12.9 g/dL
same,Ht,"[…], time 7 day",39.1%
same,Lym,"[…], time 7 day",84.2%
same,MCH,"[…], time 7 day",20.4 pg
same,MCHC,"[…], time 7 day",33%
same,MCV,"[…], time 7 day",61.7 fL
same,Mono,"[…], time 7 day",2.2%
same,Neu,"[…], time 7 day",12.2%
same,PT,"[…], time 7 day",16.3 s
same,Plat,"[…], time 7 day",105 x10_4/uL
same,RBC,"[…], time 7 day",633.4 x10_4/ul
same,Ret,"[…], time 7 day",6.3%
same,WBC,"[…], time 7 day",131.7 x10_2/uL
same,APTT,"[…], time 14 day",23.3 s
same,Bas,"[…], time 14 day",0%
same,Eos,"[…], time 14 day",1%
same,Fbg,"[…], time 14 day",317.8 mg/dL
same,Hb,"[…], time 14 day",14.1 g/dL
same,Ht,"[…], time 14 day",41.4%
same,Lym,"[…], time 14 day",80.2%
same,MCH,"[…], time 14 day",20.7 pg
same,MCHC,"[…], time 14 day",34%
same,MCV,"[…], time 14 day",60.8 fL
same,Mono,"[…], time 14 day",2%
same,Neu,"[…], time 14 day",15.8%
same,PT,"[…], time 14 day",16 s
same,Plat,"[…], time 14 day",114.3 x10_4/uL
same,RBC,"[…], time 14 day",681 x10_4/ul
same,Ret,"[…], time 14 day",5.1%
same,WBC,"[…], time 14 day",127.7 x10_2/uL
same,APTT,"[…], time 28 day",22.7 s
same,Bas,"[…], time 28 day",0%
same,Eos,"[…], time 28 day",0.8%
same,Fbg,"[…], time 28 day",341.8 mg/dL
same,Hb,"[…], time 28 day",15.1 g/dL
same,Ht,"[…], time 28 day",43.8%
same,Lym,"[…], time 28 day",80.2%
same,MCH,"[…], time 28 day",19.9 pg
same,MCHC,"[…], time 28 day",34.6%
same,MCV,"[…], time 28 day",57.7 fL
same,Mono,"[…], time 28 day",1.8%
same,Neu,"[…], time 28 day",16.4%
same,PT,"[…], time 28 day",16.4 s
same,Plat,"[…], time 28 day",101.8 x10_4/uL
same,RBC,"[…], time 28 day",760.2 x10_4/ul
same,Ret,"[…], time 28 day",2.9%
same,WBC,"[…], time 28 day",124 x10_2/uL
same,KIDNEY_L,"[…], time 7 day",1.2 g
same,KIDNEY_R,"[…], time 7 day",1.2 g
same,KIDNEY_TOTAL,"[…], time 7 day",2.3 g
same,KIDNEY_L,"[…], time 14 day",1.2 g
same,KIDNEY_R,"[…], time 14 day",1.2 g
same,KIDNEY_TOTAL,"[…], time 14 day",2.5 g
same,KIDNEY_L,"[…], time 28 day",1.4 g
same,KIDNEY_R,"[…], time 28 day",1.4 g
same,KIDNEY_TOTAL,"[…], time 28 day",2.8 g
same,LIVER,"[…], time 7 day",12.3 g
same,LIVER,"[…], time 14 day",15.1 g
same,LIVER,"[…], time 28 day",16.9 g
same,A/G,"[…], time 7 day",1.3
same,ALP,"[…], time 7 day",1379.8 IU/L
same,ALT,"[…], time 7 day",42.2 IU/L
same,AST,"[…], time 7 day",73.2 IU/L
same,BUN,"[…], time 7 day",17.6 mg/dL
same,CRE,"[…], time 7 day",0.2 mg/dL
same,Ca,"[…], time 7 day",10.7 mg/dL
same,Cl,"[…], time 7 day",104.6 meq/L
same,DBIL,"[…], time 7 day",0 mg/dL
same,GLC,"[…], time 7 day",205.2 mg/dL
same,IP,"[…], time 7 day",7.7 mg/dL
same,K,"[…], time 7 day",4.6 meq/L
same,LDH,"[…], time 7 day",212.4 IU/L
same,Na,"[…], time 7 day",141.2 meq/L
same,PL,"[…], time 7 day",133.6 mg/dL
same,RALB,"[…], time 7 day",3.1 g/dL
same,TBIL,"[…], time 7 day",0.012 mg/dL
same,TC,"[…], time 7 day",64.4 mg/dL
same,TG,"[…], time 7 day",89.4 mg/dL
same,TP,"[…], time 7 day",5.4 g/dL
same,gamma-GTP,"[…], time 7 day",2 IU/L
same,A/G,"[…], time 14 day",1.2
same,ALP,"[…], time 14 day",1370.6 IU/L
same,ALT,"[…], time 14 day",40 IU/L
same,AST,"[…], time 14 day",70.4 IU/L
same,BUN,"[…], time 14 day",18.8 mg/dL
same,CRE,"[…], time 14 day",0.2 mg/dL
same,Ca,"[…], time 14 day",10.8 mg/dL
same,Cl,"[…], time 14 day",105.4 meq/L
same,DBIL,"[…], time 14 day",0 mg/dL
same,GLC,"[…], time 14 day",201 mg/dL
same,IP,"[…], time 14 day",7 mg/dL
same,K,"[…], time 14 day",4.3 meq/L
same,LDH,"[…], time 14 day",162.6 IU/L
same,Na,"[…], time 14 day",142.2 meq/L
same,PL,"[…], time 14 day",136.8 mg/dL
same,RALB,"[…], time 14 day",3.2 g/dL
same,TBIL,"[…], time 14 day",0.002 mg/dL
same,TC,"[…], time 14 day",66 mg/dL
same,TG,"[…], time 14 day",133 mg/dL
same,TP,"[…], time 14 day",5.9 g/dL
same,gamma-GTP,"[…], time 14 day",3 IU/L
same,A/G,"[…], time 28 day",1
same,ALP,"[…], time 28 day",1347.2 IU/L
same,ALT,"[…], time 28 day",42.4 IU/L
same,AST,"[…], time 28 day",66.8 IU/L
same,BUN,"[…], time 28 day",19.4 mg/dL
same,CRE,"[…], time 28 day",0.2 mg/dL
same,Ca,"[…], time 28 day",10.4 mg/dL
same,Cl,"[…], time 28 day",104.8 meq/L
same,DBIL,"[…], time 28 day",0 mg/dL
same,GLC,"[…], time 28 day",195.8 mg/dL
same,IP,"[…], time 28 day",6.3 mg/dL
same,K,"[…], time 28 day",4 meq/L
same,LDH,"[…], time 28 day",160.6 IU/L
same,Na,"[…], time 28 day",143.2 meq/L
same,PL,"[…], time 28 day",149 mg/dL
same,RALB,"[…], time 28 day",3 g/dL
same,TBIL,"[…], time 28 day",0.006 mg/dL
same,TC,"[…], time 28 day",65.8 mg/dL
same,TG,"[…], time 28 day",192.8 mg/dL
same,TP,"[…], time 28 day",6.2 g/dL
same,gamma-GTP,"[…], time 28 day",2.6 IU/L
